Reference: patent publication US10202361B2, “Pyridazinones as herbicides” (E I DU PONT DE NEMOURS AND COMPANY, priority 2014, dated 2019)

Experiments:
Assay type in all cases: in vivo
[1] = tested on: surinam grass (Brachiaria decumbens); assay: Test C pre-/postemergence greenhouse herbicide test
Summary of the method: (§1)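 Seeds sown in loam soil–sand blend were treated preemergence; plants at 2 to 18 cm (1- to 4-leaf stage) in peat-based medium were treated postemergence. Test chemicals were formulated in a non-phytotoxic solvent mixture with surfactant. After 13 to 15 d in greenhouse, injury was rated visually versus controls, 0 (no effect) to 100 (complete control).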

[2] = tested on: nightshade (eastern black nightshade, Solanum ptycanthum); assay: as above; details: Preemergence
Summary of the method: as §1

[3] = tested on: sunflower (common oilseed sunflower, Helianthus annuus); assay: as above; details: Preemergence
Summary of the method: as §1

[4] = tested on: goosegrass (Eleusine indica); assay: as above
Summary of the method: as §1

[5] = tested on: cocklebur (common cocklebur, Xanthium strumarium); assay: as above
Summary of the method: as §1

[6] = tested on: Russian thistle (Salsola kali); assay: as above; details: Preemergence
Summary of the method: as §1

[7] = tested on: foxtail, green (green foxtail, Setaria viridis); assay: as above
Summary of the method: as §1

[8] = tested on: bermudagrass (Cynodon dactylon); assay: as above
Summary of the method: as §1

[9] = tested on: cupgrass, woolly (woolly cupgrass, Eriochloa villosa); assay: as above
Summary of the method: as §1

[10] = tested on: bromegrass, downy (downy bromegrass, Bromus tectorum); assay: as above
Summary of the method: as §1

[11] = tested on: windgrass (Apera spica-venti); assay: Test C postemergence greenhouse herbicide test
[12] = tested on: deadnettle (henbit deadnettle, Lamium amplexicaule); assay: Test C postemergence greenhouse herbicide test
[13] = tested on: barley (winter barley, Hordeum vulgare); assay: Test C postemergence greenhouse herbicide test

Measured: Plant response rating

Cc1cc(=O)n(-c2ccc(F)cc2)nc1Oc1ccnc(C(F)(F)F)c1 [Compound 14, 2-(4-fluorophenyl)-5-methyl-6-[[2-(trifluoromethyl)-4-pyridinyl]oxy]-3 (2H)-pyridazinone]
35: [5]; Postemergence, 31 g ai/ha
98: [2]; 31 g ai/ha | [2]; 62 g ai/ha | [2]; 125 g ai/ha | [7]; Postemergence, 250 g ai/ha | [8]; Preemergence, 31 g ai/ha | [8]; Preemergence, 62 g ai/ha | [8]; Preemergence, 125 g ai/ha | [8]; Preemergence, 250 g ai/ha | [9]; Preemergence, 125 g ai/ha | [9]; Preemergence, 250 g ai/ha
45: [1]; Postemergence, 250 g ai/ha | [4]; Preemergence, 31 g ai/ha
5: [1]; Postemergence, 31 g ai/ha | [3]; 62 g ai/ha | [3]; 125 g ai/ha | [4]; Postemergence, 31 g ai/ha | [8]; Postemergence, 31 g ai/ha | [9]; Postemergence, 31 g ai/ha | [10]; Postemergence, 31 g ai/ha | [10]; Postemergence, 62 g ai/ha | [10]; Postemergence, 125 g ai/ha | [10]; Preemergence, 31 g ai/ha | [10]; Preemergence, 62 g ai/ha | [10]; Preemergence, 125 g ai/ha | [13]; 31 g ai/ha | [13]; 62 g ai/ha
75: [1]; Preemergence, 125 g ai/ha | [1]; Preemergence, 250 g ai/ha
90: [6]; 62 g ai/ha | [6]; 125 g ai/ha | [6]; 250 g ai/ha
85: [5]; Postemergence, 250 g ai/ha | [6]; 31 g ai/ha | [12]; 31 g ai/ha | [12]; 62 g ai/ha | [12]; 125 g ai/ha | [12]; 250 g ai/ha
100: [2]; 250 g ai/ha | [4]; Preemergence, 125 g ai/ha | [4]; Preemergence, 250 g ai/ha
30: [1]; Postemergence, 125 g ai/ha | [10]; Postemergence, 250 g ai/ha | [10]; Preemergence, 250 g ai/ha | [11]; 250 g ai/ha
25: [11]; 125 g ai/ha | [13]; 250 g ai/ha
0: [5]; Preemergence, 31 g ai/ha
40: [5]; Postemergence, 62 g ai/ha | [5]; Postemergence, 125 g ai/ha | [7]; Postemergence, 125 g ai/ha
80: [4]; Preemergence, 62 g ai/ha
95: [7]; Preemergence, 31 g ai/ha | [7]; Preemergence, 62 g ai/ha | [7]; Preemergence, 125 g ai/ha | [7]; Preemergence, 250 g ai/ha | [9]; Preemergence, 62 g ai/ha
20: [1]; Preemergence, 62 g ai/ha | [9]; Postemergence, 250 g ai/ha | [11]; 31 g ai/ha | [11]; 62 g ai/ha
65: [9]; Preemergence, 31 g ai/ha
15: [4]; Postemergence, 125 g ai/ha | [4]; Postemergence, 250 g ai/ha | [8]; Postemergence, 250 g ai/ha | [9]; Postemergence, 62 g ai/ha | [9]; Postemergence, 125 g ai/ha
10: [1]; Postemergence, 62 g ai/ha | [3]; 250 g ai/ha | [4]; Postemergence, 62 g ai/ha | [7]; Postemergence, 31 g ai/ha | [7]; Postemergence, 62 g ai/ha | [8]; Postemergence, 62 g ai/ha | [8]; Postemergence, 125 g ai/ha | [13]; 125 g ai/ha
